Measurements as given in US20260217687A1 (NeoPhore Limited, priority 2023, published 2026).

target: T1, recombinant N-terminal MLH1 (residues 15-340) (Homo sapiens, UniProt P40692); assay: Fluorescence Polarisation Assay for MLH1; assay type: binding; details: 100 nM N-terminal MLH1, 5 nM probe compound
T1 construct: recombinant N-terminal MLH1 (residues 15-340)
T1 sequence (P40692 15-340): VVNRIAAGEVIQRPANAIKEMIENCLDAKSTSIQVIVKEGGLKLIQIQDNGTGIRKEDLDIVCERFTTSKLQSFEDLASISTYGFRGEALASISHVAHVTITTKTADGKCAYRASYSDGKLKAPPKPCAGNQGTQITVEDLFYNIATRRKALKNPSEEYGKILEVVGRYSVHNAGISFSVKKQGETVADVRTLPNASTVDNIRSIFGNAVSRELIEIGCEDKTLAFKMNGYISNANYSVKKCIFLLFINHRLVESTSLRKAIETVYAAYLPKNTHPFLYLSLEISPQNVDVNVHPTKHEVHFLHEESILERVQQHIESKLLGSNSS
Experimental: Fluorescence Polarisation Assay for MLH1
Test compounds, as 10 mM DMSO stocks, were dispensed into a 384-well Low Flange Black Flat Bottom Polystyrene Non-binding Surface plate (Corning®, item number 3575) using a Labcyte Echo acoustic liquid handler. […] 20 μL of a 2× solution (200 nM) of recombinant N-terminal MLH1 (residues 15-340) in assay buffer (25 mM HEPES, pH 7.5, 250 mM NaCl, 10 mM MgCl2, 0.01% Triton X-100, 5 mM Dithiothreitol) was added to all wells in columns 1-23 and 20 μL assay buffer was added to all wells in column 24 using an E1-ClipTip pipette (ThermoFisher). Plates were centrifuged for 1 minute at 250 xg and were incubated at room temperature for 30 minutes prior to the addition of 20 μL of 2×(10 nM) of 5-((5-(4-((2-(2-(Benzyloxy)-4,6-dihydroxybenzoyl)isoindolin-5-yl)methyl)piperazin-1-yl)pentyl)carbamoyl)-2-(6-(dimethylamino)-3-(dimethyliminio)-3H-xanthen-9-yl)benzoate (referred to hereinafter as “probe compound”) in assay buffer (prepared from a 1 mM DMSO stock) with an E1-ClipTip pipette (ThermoFisher). The final concentration of N-terminal MLH1 was 100 nM and the final concentration of the probe compound was 5 nM. Compound plates were centrifuged for 1 minute at 250 xg for 1 minute and immediately read on a PheraStar FSX (fitted with 384-well aperture spoon and 590 675 675 FP optic module). The gain and focus were adjusted before each plate was read so that the polarisation of a no enzyme control (column 24) was equal to 35 mP. Data were normalised against the no inhibitor controls (column 23) and no enzyme controls (column 24).

Compound | IC50
N#Cc1cc(O)c(C(=O)N2Cc3cccc(N[C@H]4CCOC4)c3C2)c(OCC2CC2)c1 [Example 12.2, (S)-3-(Cyclopropylmethoxy)-5-hydroxy-4-(4-((tetrahydrofuran-3-yl)amino)isoindoline-2-carbonyl)benzonitrile] | 1000 to 10000 nM
N#Cc1cc(O)c(C(=O)N2CCc3cc(NC4CCOC4)ccc32)c(OCc2ccccc2)c1 (stereo not shown) [Example 27.4, 3-(Benzyloxy)-5-hydroxy-4-(5-((tetrahydrofuran-3-yl)amino)indoline-1-carbonyl)benzonitrile] | 1000 to 10000 nM
COc1cc(C#N)cc(O)c1C(=O)N1Cc2cccc(N[C@H]3CCOC3)c2C1 [Example 12.1, (S)-3-Hydroxy-5-methoxy-4-(4-((tetrahydrofuran-3-yl)amino)isoindoline-2-carbonyl)benzonitrile] | 1000 to 10000 nM
CN(C)CCOc1nc2c(c(NC3CCOC3)n1)CN(C(=O)c1c(O)cc(C(F)F)cc1OCc1ccccc1)CC2 (stereo not shown) [Example 27.17, (2-(Benzyloxy)-4-(difluoromethyl)-6-hydroxyphenyl)(2-(2-(dimethylamino)ethoxy)-4-((tetrahydrofuran-3-yl)amino)-7,8-dihydropyrido[4,3-d]pyrimidin-6(5H)-yl)methanone] | 100 to 1000 nM
O=C(c1c(O)cc(C(F)F)cc1OCc1ccccc1)N1Cc2ccc(OC3CCOCC3)cc2C1 [Example 4.78, (2-(Benzyloxy)-4-(difluoromethyl)-6-hydroxyphenyl) (5-((tetrahydro-2H-pyran-4-yl)oxy)isoindolin-2-yl)methanone] | 100 to 1000 nM
O=C(c1c(O)cc(C(F)F)cc1OCc1ccccc1)N1CCc2ccc(N[C@H]3CCOC3)cc21 (single isomer, unassigned) [Example 27.2b, (S)-(2-(Benzyloxy)-4-(difluoromethyl)-6-hydroxyphenyl)(6-((tetrahydrofuran-3-yl)amino)indolin-1-yl)methanone or (R)-(2-(benzyloxy)-4-(difluoromethyl)-6-hydroxyphenyl)(6-((tetrahydrofuran-3-yl)amino)indolin-1-yl)methanone] | 100 to 1000 nM
O=C(c1c(O)cc(C(F)F)cc1OCc1ccccc1)N1CCc2cccc(NC3COC3)c2C1 [Example 4.7, (2-(Benzyloxy)-4-(difluoromethyl)-6-hydroxyphenyl)(8-(oxetan-3-ylamino)-3,4-dihydroisoquinolin-2(1H)-yl) methanone] | 100 to 1000 nM
CN(C)C(=O)CNc1cccc2c1CN(C(=O)c1c(O)cc(C(F)F)cc1OCc1ccccc1)C2 [Example 4.29, 2-((2-(2-(Benzyloxy)-4-(difluoromethyl)-6-hydroxybenzoyl)isoindolin-4-yl)amino)-N, N-dimethylacetamide] | 100 to 1000 nM
O=C(c1c(O)cc(C(F)F)cc1OCc1ccccc1)N1Cc2ccc(Oc3ccncc3)cc2C1 [Example 4.60, (2-(Benzyloxy)-4-(difluoromethyl)-6-hydroxyphenyl)(5-(pyridin-4-yloxy)isoindolin-2-yl)methanone] | 100 to 1000 nM
O=C(c1c(O)cc(C(F)F)cc1OCc1ccccc1)N1CCc2cccc(N[C@H]3CCOC3)c2C1 [Example 4.6, (S)-(2-(Benzyloxy)-4-(difluoromethyl)-6-hydroxyphenyl)(8-((tetrahydrofuran-3-yl)amino)-3,4-dihydroisoquinolin-2(1H)-yl)methanone] | 100 to 1000 nM
O=C(c1c(O)cc(C(F)F)cc1OCC12CC(CO1)C2)N1CCc2cccc(N[C@H]3CCOC3)c2C1 [Example 28.1, (S)-(2-((2-Oxabicyclo[2.1.1]hexan-1-yl)methoxy)-4-(difluoromethyl)-6-hydroxyphenyl)(8-((tetrahydrofuran-3-yl)amino)-3,4-dihydroisoquinolin-2(1H)-yl)methanone] | 1000 to 10000 nM
N#Cc1cc(O)c(C(=O)N2CCCc3cc(NC4CCOC4)ccc32)c(OCc2ccccc2)c1 (stereo not shown) [Example 27.18, 3-(Benzyloxy)-5-hydroxy-4-(6-((tetrahydrofuran-3-yl)amino)-1,2,3,4-tetrahydroquinoline-1-carbonyl)benzonitrile] | 1000 to 10000 nM
CC(=O)N1CC(Nc2cccc3c2CN(C(=O)c2c(O)cc(C(F)F)cc2OCc2ccccc2)C3)C1 [Example 4.3, 1-(3-((2-(2-(Benzyloxy)-4-(difluoromethyl)-6-hydroxybenzoyl)isoindolin-4-yl)amino)azetidin-1-yl)ethan-1-one] | 100 to 1000 nM
O=C(c1c(O)cc(C(F)F)cc1OCc1ccccc1)N1CCc2cnccc21 [Example 27.21, (2-(Benzyloxy)-4-(difluoromethyl)-6-hydroxyphenyl)(2,3-dihydro-1H-pyrrolo[3,2-c]pyridin-1-yl)methanone] | 1000 to 10000 nM
CN(C)Cc1ccc2c(c1)CN(C(=O)c1c(O)cc(C#N)cc1OCc1ccccc1)C2 [Example 10.15, 3-(Benzyloxy)-4-(5-((dimethylamino)methyl)isoindoline-2-carbonyl)-5-hydroxybenzonitrile] | 1000 to 10000 nM
CN(C)CCOc1cc2c(c(N[C@@H]3CCOC3)c1)CN(C(=O)c1c(O)cc(C#N)cc1OCc1ccccc1)C2 [Example 18, (R)-3-(Benzyloxy)-4-(6-(2-(dimethylamino)ethoxy)-4-((tetrahydrofuran-3-yl)amino)isoindoline-2-carbonyl)-5-hydroxybenzonitrile] | 100 to 1000 nM
N#Cc1cc(O)c(C(=O)N2CCc3cccc(N[C@H]4CCOC4)c3C2)c(OCc2ccccc2)c1 [Example 17, (S)-3-(Benzyloxy)-5-hydroxy-4-(8-((tetrahydrofuran-3-yl)amino)-1,2,3,4-tetrahydroisoquinoline-2-carbonyl)benzonitrile] | 100 to 1000 nM
N#Cc1cc(O)c(C(=O)N2CCc3cccc(N[C@@H]4CCOC4)c3C2)c(OCc2ccccc2)c1 [Example 10.12, (R)-3-(Benzyloxy)-5-hydroxy-4-(8-((tetrahydrofuran-3-yl)amino)-1,2,3,4-tetrahydroisoquinoline-2-carbonyl)benzonitrile] | 1000 to 10000 nM
O=C(c1c(O)cc(C(F)(F)F)cc1OCc1ccccc1)N1Cc2cccc(N[C@H]3CCOC3)c2C1 [Example 23, (S)-(2-(Benzyloxy)-6-hydroxy-4-(trifluoromethyl)phenyl) (4-((tetrahydrofuran-3-yl)amino)isoindolin-2-yl) methanone] | 100 to 1000 nM
N#Cc1cc(O)c(C(=O)N2Cc3cccc(NCc4cocn4)c3C2)c(OCc2ccccc2)c1 [Example 10.9, 3-(Benzyloxy)-5-hydroxy-4-(4-((oxazol-4-ylmethyl)amino)isoindoline-2-carbonyl)benzonitrile] | 100 to 1000 nM
CN1CC[C@@H](Oc2ccc3c(c2)CN(C(=O)c2c(O)cc(C(F)F)cc2OCc2ccccc2)CC3)C1 [Example 4.67, (R)-(2-(Benzyloxy)-4-(difluoromethyl)-6-hydroxyphenyl)(7-((1-methylpyrrolidin-3-yl)oxy)-3,4-dihydroisoquinolin-2(1H)-yl)methanone] | 100 to 1000 nM
O=C(c1c(O)cc(C(F)F)cc1OCc1ccccc1)N1CCc2ccc(NC3CCOC3)cc21 (single isomer, unassigned) [Example 27.2a, (S)-(2-(Benzyloxy)-4-(difluoromethyl)-6-hydroxyphenyl)(6-((tetrahydrofuran-3-yl)amino)indolin-1-yl)methanone or (R)-(2-(Benzyloxy)-4-(difluoromethyl)-6-hydroxyphenyl)(6-((tetrahydrofuran-3-yl)amino)indolin-1-yl)methanone] | 100 to 1000 nM
